In brackets after ≈: the same amount, converted by molar mass. Read-outs that look alike come from different tables or passages of the source.
Experiments:
LTA = LTA quantification by Western blot; type: cell-based, Staphylococcus aureus; conditions: strain LAC, 1× and 4× the MIC
Protocol: Overnight cultures of S. aureus strains were diluted 1:200 in fresh TSB and grown to an optical density of OD600nm 0.3. […] Vancomycin and daptomycin at 1× and 4× MIC were also included as control antibiotics. Cells were then normalized to have 10 mL of OD600nm 0.6, pelleted at 4000 rpm, and resuspended in 300 μL of PBS containing 200 μg/mL lysostaphin. This suspension was then incubated at 37 °C for 45 min to allow digestion of the cell wall to occur. One hundred microlitres of 4× SDS sample buffer were then added, and the mixture was boiled at 95 °C for 20 min. The insoluble material was then removed by pelleting at 16,000 rpm for 10 min. The supernatant containing LTA was then subjected to SDS-PAGE on a 4–20% Tris-glycine gel (Bio-Rad). The gel was transferred onto a PVDF membrane using a Trans-Blot Turbo Transfer System (Bio-Rad). The membrane was blocked overnight in TBST containing 5% semi-skimmed milk before being incubated with a mouse anti-LTA antibody (Hycult; HM2048; 1:2000 dilution) followed by a goat antimouse-HRP secondary antibody (Proteintech; SA00001; 1:2000 dilution) before being visualized using an Amersham-ECL kit (Cytiva).

S. epidermidis = assay: MIC, broth microdilution (CLSI); type: cell-based, Staphylococcus epidermidis; conditions: for MIC: read-out: minimum inhibitory concentration
Protocol: (§1) S. aureus, S. epidermidis, E. faecalis, and E. faecium strains were routinely cultivated on tryptic soy agar (TSA) and grown for 18 h at 37 °C. S. aureus single colonies were subsequently transferred into 2 mL of tryptic soy broth (TSB) and grown for a further 18 h at 37 °C while being shaken at 180 rpm. S. pyogenes, S. agalactiae, and S. dysgalactiae strains were routinely cultured on TSA supplemented with 5% sheep blood and grown for 18 h at 37 °C with 5% CO2. E. coli was grown in LB broth at 37 °C. For LtaS-deficient strains, TSB was supplemented with 0.5 M NaCl to provide an osmotically balanced environment and instead grown at 30 °C. For strains harboring the pRMC2 tetracycline inducible vector,[61] the growth medium was supplemented with 10 μg/mL chloramphenicol and […] anhydrotetracycline hydrochloride (Sigma). Phenylalanine-arginine β-naphthylamide (PAβN) (Sigma) was dissolved in sterile water.
(§2) B. subtilis, staphylococcal, and enterococcal strains were grown in Mueller Hinton broth (MHB), while streptococcal strains were grown in MHB supplemented with 5% laked horse blood. All strains were grown for 18 h at 37 °C. The overnight cultures were subsequently subcultured 1:200 and grown to the exponential phase (OD600nm = 0.5–0.6) in fresh broth. 1771 and its derivatives 9–14 were reconstituted in DMSO and further diluted by performing a 1:2 serial dilution ranging between 256 and 0.125 μg/mL in a 96-well microtiter plate. One hundred microliters of 0.5 McFarland standardized inoculum (approximately equal to 5 × 10^5 cfu) were then dispensed into each well in the 96-well microtiter plate. The plate was incubated for 18 h at 37 °C.

S. aureus = assay: MIC, broth microdilution (CLSI); type: cell-based, Staphylococcus aureus; conditions: for MIC: read-out: minimum inhibitory concentration; for MIC50: used for selectivity index; for MIC range against S. aureus strains: collection of S. aureus strains incl. multidrug-resistant MRSA and VRSA
Protocol: as §1, §2

MRSA strain LAC = assay: Time-kill kinetic analysis; type: cell-based, Staphylococcus aureus; conditions: for effect on growth of LAC: 1× MIC, 24 h, inoculum 5 × 10^5 cfu
Protocol: Overnight cultures of MRSA strain LAC were subcultured 1:200 and grown to the exponential phase in fresh MHB. These cultures were subsequently diluted to give 500 μL of MHB containing 5 × 10^5 cfu. […] These suspensions were incubated for 24 h at 37 °C, with 50 μL of the suspension serially diluted 1:10 in 450 μL of phosphate buffered saline (PBS) and plated out on TSA at times 0, 1, 2, 4, 6, and 24 h for enumeration.

[1] = test system: S. aureus wild type, clpX, ltaS, tarO mutants and ltaS overexpression strains; assay: MIC against LtaS deletion and overexpression strains; type: cell-based, Staphylococcus aureus
Protocol: as §1, §2
For overexpression studies, full-length ltaS was amplified by PCR using MRSA strian LAC genomic DNA, primer pair LtaS-FW: 5′-[…]-3′ and LtaS-RV: 5′-[…]-3′, and Phusion High-Fidelity DNA Polymerase (Thermo Fisher). The resulting PCR product was cloned into the tetracycline inducible plasmid pRMC2 using SacI and KpnI restriction sites and T4 ligase (NEB). The cloned vector was subsequently transformed into RN4220 followed by LAC through electroporation.

erythrocytes = assay: Erythrocyte toxicity (hemolysis) assay; type: cell-based, human; conditions: concentrations as high as 256 μg/mL, 1 h, 37 °C
Protocol: Consent was collected from three healthy volunteers prior to blood collection and in accordance with the recommendations of the University of Bath, Research Ethics Approval Committee for Health Blood (EP 18/19108). Blood was collected by venepuncture and drawn directly into K2-EDTA-coated Vacutainer tubes (BD Biosciences) to prevent coagulation. The blood was then pelleted at 500g for 10 min at 4 °C, and the plasma layer was removed. The remaining hematocrit was resuspended to the original volume in a sterile saline solution. This procedure was repeated three times and finally resuspended in sterile PBS and diluted to 2% (v/v). One hundred microlitres of the resulting blood suspension were aliquoted in a 96-well microtire plate. An equal volume of either 1771 or 13 (diluted in PBS) was then added at a concentration range of 256–2 μg/mL and incubated for 1 h at 37 °C. Blood incubated with PBS served as a negative control, and total hemolysis (positive control) was provided by incubating the cells in 2% (v/v) Triton X-100. Following incubation, the 96-well microtire plate was pelleted at 500g for 5 min, and 100 μL of supernatant was transferred into a new plate. Absorbance at abs404nm was measured using a Sunrise plate reader, and percentage hemolysis was calculated according to controls.

[2] = Staphylococcus epidermidis, strain 305
[3] = Staphylococcus epidermidis, strain 311
[4] = Staphylococcus epidermidis, strain 319
[5] = Staphylococcus epidermidis, strain 322
[6] = Staphylococcus epidermidis, strain 771
[7] = Staphylococcus epidermidis, strain 780
[8] = Staphylococcus epidermidis, strain RP62A
[9] = Staphylococcus aureus, NEWMAN, strain Newman
[10] = Staphylococcus aureus, strain EMRSA-15
[11] = Staphylococcus aureus, strain LAC
[12] = Staphylococcus aureus, strain MRSA252
[13] = Staphylococcus aureus, strain MW2
[14] = Staphylococcus aureus, strain Mu3
[15] = Staphylococcus aureus, strain Mu50
[16] = Staphylococcus aureus, strain SH1000
[17] = Staphylococcus aureus, strain TW20
[18] = Staphylococcus aureus, 8325-4 (wild type), clpX set
[19] = Staphylococcus aureus, NEWMAN, Newman ΔtarO
[20] = Staphylococcus aureus, NEWMAN, Newman ΔtarO pRMC2 (empty vector)
[21] = Staphylococcus aureus, NEWMAN, Newman ΔtarO pltaS (ltaS overexpression)
[22] = Staphylococcus aureus, SA564 (wild type)
[23] = Staphylococcus aureus, SA564 clpX knockout mutant

Compound	LTA signal by Western blot (LTA)	MIC (S. epidermidis; [2]) [µg/mL]	MIC (S. epidermidis; [3]) [µg/mL]	MIC (S. epidermidis; [4]) [µg/mL]	MIC (S. epidermidis; [5]) [µg/mL]	MIC (S. epidermidis; [6]) [µg/mL]	MIC (S. epidermidis; [7]) [µg/mL]	MIC (S. epidermidis; [8]) [µg/mL]	MIC (S. aureus; [9]) [µg/mL]	MIC (S. aureus; [10]) [µg/mL]	MIC (S. aureus; [11]) [µg/mL]	MIC (S. aureus; [12]) [µg/mL]	MIC (S. aureus; [13]) [µg/mL]	MIC (S. aureus; [14]) [µg/mL]	MIC (S. aureus; [15]) [µg/mL]	MIC (S. aureus; [16]) [µg/mL]	MIC (S. aureus; [17]) [µg/mL]	MIC50 (S. aureus; Staphylococcus aureus) [µg/mL]	MIC range against S. aureus strains (S. aureus) [µg/mL]	effect on growth of LAC (MRSA strain LAC)	other results
O=C(COC(=O)Cc1coc2ccc3ccccc3c12)Nc1nnc(-c2ccccc2)o1 [Compound 1771, 2-Oxo-2-((5-phenyl-1,3,4-oxadiazol-2-yl)amino)ethyl 2-(Naphtho[2,1-b]furan-1-yl)acetate, reference compound]	reduction in LTA abundance	8 to 16 (≈ 18.7 to 37.4 µM)	8 to 16 (≈ 18.7 to 37.4 µM)	8 to 16 (≈ 18.7 to 37.4 µM)	16 (≈ 37.4 µM)	8 to 16 (≈ 18.7 to 37.4 µM)	8 to 16 (≈ 18.7 to 37.4 µM)	8 to 16 (≈ 18.7 to 37.4 µM)	4 to 8 (≈ 9.36 to 18.7 µM)	8 to 16 (≈ 18.7 to 37.4 µM)	8 (≈ 18.7 µM)	8 (≈ 18.7 µM)	8 (≈ 18.7 µM)	8 to 16 (≈ 18.7 to 37.4 µM)	4 to 8 (≈ 9.36 to 18.7 µM)	4 to 8 (≈ 9.36 to 18.7 µM)	8 (≈ 18.7 µM)	8 (≈ 18.7 µM)	4 to 16	completely inhibited the growth	MIC range against S. epidermidis strains (S. epidermidis; collection of S. epidermidis strains): 8 to 16 µg/mL; killing effect (MRSA strain LAC; 4× MIC, LAC): roughly 65%; MIC [1, 18]: 16 µg/mL (≈ 37.4 µM); MIC ([1]; Staphylococcus aureus, JE2 (wild type)): 16 µg/mL (≈ 37.4 µM); MIC ([1]; Staphylococcus aureus, JE2 clpXI265E and ltaS339STOP mutant): 16 µg/mL (≈ 37.4 µM); MIC ([1]; Staphylococcus aureus, NEWMAN): 16 µg/mL (≈ 37.4 µM); MIC [1, 19]: 16 µg/mL (≈ 37.4 µM); MIC [1, 20]: 16 µg/mL (≈ 37.4 µM); MIC [1, 21]: 16 µg/mL (≈ 37.4 µM); MIC [1, 22]: 16 µg/mL (≈ 37.4 µM); MIC ([1]; Staphylococcus aureus, SA564clpX knockout and ltaSH476Q mutant): 16 µg/mL (≈ 37.4 µM); MIC [1, 23]: 16 µg/mL (≈ 37.4 µM); erythrocyte lysis (erythrocytes): neither caused any lysis
O=C(COC(=O)Cc1coc2ccc3ccccc3c12)Nc1nnc(-c2ccc(S(F)(F)(F)(F)F)cc2)o1 [Compound 13, 2-Oxo-2-((5-(4-(pentafluoro-l6-sulfaneyl)phenyl)-1,3,4-oxadiazol-2-yl)amino)ethyl 2-(Naphtho[2,1-b]furan-1-yl)acetate]	reduction in LTA abundance	0.5 to 1 (≈ 0.903 to 1.81 µM)	0.5 (≈ 0.903 µM)	1 (≈ 1.81 µM)	0.5 (≈ 0.903 µM)	0.5 (≈ 0.903 µM)	0.5 to 1 (≈ 0.903 to 1.81 µM)	0.5 (≈ 0.903 µM)	0.5 (≈ 0.903 µM)	0.5 (≈ 0.903 µM)	0.5 (≈ 0.903 µM)	1 (≈ 1.81 µM)	0.5 (≈ 0.903 µM)	0.5 (≈ 0.903 µM)	0.5 (≈ 0.903 µM)	0.5 (≈ 0.903 µM)	0.5 (≈ 0.903 µM)	0.5 (≈ 0.903 µM)	0.5 to 1	completely inhibited the growth	MIC90 (S. epidermidis; Staphylococcus epidermidis): 1 µg/mL (≈ 1.81 µM); MIC90 (S. aureus; Staphylococcus aureus, against S. aureus): 0.5 µg/mL (≈ 0.903 µM); fold increase in activity compared to 1771 (S. aureus; multidrug-resistant S. aureus strains): 16- to 32 fold; starting inoculum surviving the exposure (MRSA strain LAC; 4× MIC, LAC): 1%; MIC ([1]; 8325-4 (wild type), clpX set): 0.5 to 1 µg/mL; MIC ([1]; SA564clpX knockout and ltaSH476Q mutant): 0.25 µg/mL (≈ 0.452 µM); MIC [1, 18]: 0.5 to 1 µg/mL (≈ 0.903 to 1.81 µM); MIC ([1]; Staphylococcus aureus, 8325-4 clpX knockout and ltaS382STOP mutant): 0.25 µg/mL (≈ 0.452 µM); MIC ([1]; Staphylococcus aureus, 8325-4 clpX knockout mutant): 0.25 µg/mL (≈ 0.452 µM); MIC ([1]; Staphylococcus aureus, JE2 clpXI265E mutant): 0.25 µg/mL (≈ 0.452 µM); MIC ([1]; Staphylococcus aureus, NEWMAN): 1 µg/mL (≈ 1.81 µM); MIC [1, 19]: 1 µg/mL (≈ 1.81 µM); MIC [1, 20]: 1 µg/mL (≈ 1.81 µM); MIC [1, 21]: 1 µg/mL (≈ 1.81 µM); MIC [1, 22]: 0.25 µg/mL (≈ 0.452 µM); MIC [1, 23]: 0.25 µg/mL (≈ 0.452 µM); erythrocyte lysis (erythrocytes): neither caused any lysis
